The source of these data is the SangsterLogP compilation.

Each structure is given as a SMILES string.

The series in a line: method code SF-AS, from DOI: 10.1002/zfch.19860260715. The settings on record: pH 7.4.
As to `CCOc1ccc(NC(=O)NNC(C)=O)cc1`, the logD was found to be 0.55. Compound `CC(=O)NNC(=O)Nc1cccc(C)c1` came in with a pH-dependent lipophilicity (logD) of 0.77. Take `CC(=O)NNC(=O)Nc1ccc(C(C)(C)C)cc1`: the logD was 2.14. Under `CC(=O)NNC(=O)Nc1ccc(N(C)C)cc1` stands 0.11; under `CC(=O)NNC(=O)Nc1cccc(C(F)(F)F)c1`, 1.63.

For the compound `CC(=O)NNC(=O)Nc1ccc(Oc2ccccc2)cc1`, the log distribution coefficient (logD) amounted to 2.09.

Regarding `CC(=O)NNC(=O)Nc1ccc(C#N)cc1`, the logD worked out at 0.37.

With `COc1ccc(NC(=O)NNC(C)=O)cc1`, the pH-dependent lipophilicity (logD) was determined as 0.06. In turn, `CC(=O)NNC(=O)Nc1ccc(C)cc1` had a log distribution coefficient (logD) of 0.76.

In the case of `COc1cccc(NC(=O)NNC(C)=O)c1`, the log distribution coefficient (logD) worked out at 0.39.

Broadly, the logD is lipophilicity at a set pH, counting ionised and neutral species. Read a high logD as higher lipophilicity.
